Test results published in patent publication US12384787B2, “Fused heterocyclic compounds and their use as pest control agents” (PI INDUSTRIES LTD., priority 2019, dated 2025).

Tested on: Plutella xylostella
Experiment: Plutella xylostella leaf dip method (cabbage leaves)
Assay type: in vivo
Settings: foliar, second instar larvae, 72 h after release, dead and moribund combined, compared to untreated control, read-out: Percent mortality
Experimental: The leaf dip method was used for testing, wherein the required quantity of the compounds were weighed and dissolved in a surfactant solution, kept on a Vortex at 2000 rpm with zirconia beads for 90 min for proper mixing and then diluted with 0.01% Triton-X solution to the desired test concentration. Cabbage leaves were dipped in the solution for 10 seconds, shade dried for 20 min and then transferred to bioassay trays. A single second instar larva was released into each bioassay tray cell and the tray was covered with a lid. The bio-assay trays were kept under laboratory conditions at a temperature of 25° C. and relative humidity of 70%. Observations on dead, moribund and living larvae were recorded at 72 h after the release. Percent mortality was calculated by combining dead and moribund larvae and comparing the result to the one of the untreated control.

| SMILES | mortality at 300 ppm [%] |
| --- | --- |
| CCS(=O)(=O)c1nn2cc(-c3ccc(OC(F)(F)F)cc3)cnc2c1-c1nc2cc(C(F)(F)F)ncc2n1C [Compound 100, 2-(2-(Ethylsulfonyl)-6-(4-(trifluoromethoxy)phenyl)pyrazolo[1,5-a]pyrimidin-3-yl)-3-methyl-6-(trifluoromethyl)-3H-imidazo[4,5-c]pyridine] | > 70 |
| CCS(=O)(=O)c1nn2c(-c3ccccc3)ccnc2c1-c1nc2cc(C(F)(F)F)cnc2n1C [Compound 115, 2-(2-(Ethylsulfonyl)-7-phenylpyrazolo[1,5-a]pyrimidin-3-yl)-3-methyl-6-(trifluoromethyl)-3H-imidazo[4,5-b]pyridine] | > 70 |
| CCS(=O)(=O)c1nn2cc(-c3cc(Cl)cc(Cl)c3)cnc2c1-c1nc2cc(C(F)(F)F)ncc2n1C [Compound 81, 2-(6-(3,5-Dichlorophenyl)-2-(ethylsulfonyl)pyrazolo[1,5-a]pyrimidin-3-yl)-3-methyl-6-(trifluoromethyl)-3H-imidazo[4,5-c]pyridine] | > 70 |
| CCS(=O)(=O)c1nn2c(-c3ccc(OC(F)(F)F)cc3)ccnc2c1-c1nc2cc(C(F)(F)F)ncc2n1C [Compound 30, 2-(2-(Ethylsulfonyl)-7-(4-(trifluoromethoxy)phenyl)pyrazolo[1,5-a]pyrimidin-3-yl)-3-methyl-6-(trifluoromethyl)-3H-imidazo[4,5-c]pyridine] | > 70 |
| CCS(=O)(=O)c1nn2ccc(-c3ccccc3)nc2c1-c1nc2cc(C(F)(F)F)ncc2n1C [Compound 46, 2-(2-(Ethylsulfonyl)-5-phenylpyrazolo[1,5-a]pyrimidin-3-yl)-3-methyl-6-(trifluoromethyl)-3H-imidazo[4,5-d]pyridine] | > 70 |
| CCS(=O)(=O)c1nn2cccnc2c1-c1nc2cc(S(=O)(=O)C(F)(F)F)ccc2o1 [Compound 18, 2-(2-(Ethylsulfonyl)pyrazolo[1,5-a]pyrimidin-3-yl)-5-((trifluoromethyl)sulfonyl)benzo[d]oxazole] | > 70 |
| CCSc1nn2c(-c3ccc(OC(F)(F)F)cc3)ccnc2c1-c1nc2cc(C(F)(F)F)cnc2n1C [Compound 27, 2-(2-(Ethylthio)-7-(4-(trifluoromethoxy)phenyl)pyrazolo[1,5-a]pyrimidin-3-yl)-3-methyl-6-(trifluoromethyl)-3H-imidazo[4,5-b]pyridine] | > 70 |
| CCS(=O)(=O)c1nn2c(-c3ccc(OC(F)(F)F)cc3)ccnc2c1-c1nc2cc(C(F)(F)F)cnc2n1C [Compound 29, 2-(2-(Ethylsulfonyl)-7-(4-(trifluoromethoxy)phenyl)pyrazolo[1,5-a]pyrimidin-3-yl)-3-methyl-6-(trifluoromethyl)-3H-imidazo[4,5-b]pyridine] | > 70 |
| CCSc1nn2cc(Cl)cnc2c1-c1nc2cc(C(F)(F)F)cnc2n1C [Compound 48, 2-(6-Chloro-2-(ethylthio)pyrazolo[1,5-a]pyrimidin-3-yl)-3-methyl-6-(trifluoromethyl)-3H-imidazo[4,5-b]pyridine] | > 70 |
| CCS(=O)(=O)c1nn2c(-c3cc(Cl)cc(Cl)c3)ccnc2c1-c1nc2cc(S(=O)(=O)C(F)(F)F)ccc2o1 [Compound 43, 2-(7-(3,5-Dichlorophenyl)-2-(ethylsulfonyl)pyrazolo[1,5-a]pyrimidin-3-yl)-5-((trifluoromethyl)sulfonyl)benzo[d]oxazole] | > 70 |
| CCSc1nn2cc(-c3ccc(OC(F)(F)C(F)F)cc3)cnc2c1-c1nc2cc(C(F)(F)F)cnc2n1C [Compound 95, 2-(2-(Ethylthio)-6-(4-(1,1,2,2-tetrafluoroethoxy)phenyl)pyrazolo[1,5-a]pyrimidin-3-yl)-3-methyl-6-(trifluoromethyl)-3H-imidazo[4,5-b]pyridine] | > 70 |
| CCSc1nn2cc(Br)cnc2c1-c1nc2cc(C(F)(F)F)cnc2n1C [Compound 70, 2-(6-Bromo-2-(ethylthio)pyrazolo[1,5-a]pyrimidin-3-yl)-3-methyl-6-(trifluoromethyl)-3H-imidazo[4,5-b]pyridine] | > 70 |
| CCS(=O)(=O)c1cc2cc(C(F)(F)F)ccn2c1-c1nc2cc(C(F)(F)F)cnc2n1C [Compound 5, 2-(2-(Ethylsulfonyl)-7-(trifluoromethyl)indolizin-3-yl)-3-methyl-6-(trifluoromethyl)-3H-imidazo[4,5-b]pyridine] | > 70 |
| CCSc1nn2c(-c3ccc(F)cc3)ccnc2c1-c1nc2cc(C(F)(F)F)ncc2n1C [Compound 20, 2-(2-(Ethylthio)-7-(4-fluorophenyl)pyrazolo[1,5-a]pyrimidin-3-yl)-3-methyl-6-(trifluoromethyl)-3H-imidazo[4,5-c]pyridine] | > 70 |
| CCS(=O)(=O)c1cc2c(-c3cc(Cl)cc(Cl)c3)cccn2c1-c1nc2cc(C(F)(F)F)cnc2n1C [Compound 6, 2-(8-(3,5-Dichlorophenyl)-2-(ethylsulfonyl)indolizin-3-yl)-3-methyl-6-(trifluoromethyl)-3H-imidazo[4,5-b]pyridine] | > 70 |
| CCS(=O)(=O)c1nn2c(C)cc(C)nc2c1-c1nc2cc(C(F)(F)F)ncc2n1C [Compound 12, 2-(2-(Ethylsulfonyl)-5,7-dimethylpyrazolo[1,5-a]pyrimidin-3-yl)-3-methyl-6-(trifluoromethyl)-3H-imidazo[4,5-c]pyridine] | > 70 |
| CCS(=O)(=O)c1nn2c(-c3cccc(F)c3)ccnc2c1-c1nc2cc(C(F)(F)F)ncc2n1C [Compound 137, 2-(2-(Ethylsulfonyl)-7-(3-fluorophenyl)pyrazolo[1,5-a]pyrimidin-3-yl)-3-methyl-6-(trifluoromethyl)-3H-imidazo[4,5-c]pyridine] | > 70 |
| CCS(=O)(=O)c1nn2cc(-c3ccc(Cl)cc3)cnc2c1-c1nc2cc(C(F)(F)F)ncc2n1C [Compound 74, 2-(6-(4-Chlorophenyl)-2-(ethylsulfonyl)pyrazolo[1,5-a]pyrimidin-3-yl)-3-methyl-6-(trifluoromethyl)-3H-imidazo[4,5-c]pyridine] | > 70 |
| CCS(=O)(=O)c1nn2ccc(-c3ccc(Cl)cc3)nc2c1-c1nc2cc(C(F)(F)F)cnc2n1C [Compound 88, 2-(5-(4-Chlorophenyl)-2-(ethylsulfonyl)pyrazolo[1,5-a]pyrimidin-3-yl)-3-methyl-6-(trifluoromethyl)-3H-imidazo[4,5-b]pyridine] | > 70 |
| CCS(=O)(=O)c1nn2c(-c3cccc(Cl)c3Cl)ccnc2c1-c1nc2cc(C(F)(F)F)cnc2n1C [Compound 114, 2-(7-(2,3-Dichlorophenyl)-2-(ethylsulfonyl)pyrazolo[1,5-a]pyrimidin-3-yl)-3-methyl-6-(trifluoromethyl)-3H-imidazo[4,5-b]pyridine] | > 70 |
| CCSc1nn2cc(-c3cc(Cl)cc(Cl)c3)cnc2c1-c1nc2cc(C(F)(F)F)ncc2n1C [Compound 80, 2-(6-(3,5-Dichlorophenyl)-2-(ethylthio)pyrazolo[1,5-a]pyrimidin-3-yl)-3-methyl-6-(trifluoromethyl)-3H-imidazo[4,5-c]pyridine] | > 70 |
| CCS(=O)(=O)c1nn2ccc(-c3ccc(F)cc3)nc2c1-c1nc2cc(C(F)(F)F)cnc2n1C [Compound 62, 2-(2-(Ethylsulfonyl)-5-(4-fluorophenyl)pyrazolo[1,5-a]pyrimidin-3-yl)-3-methyl-6-(trifluoromethyl)-3H-imidazo[4,5-b]pyridine] | > 70 |
| CCS(=O)(=O)c1nn2ccc(-c3cc(Cl)cc(Cl)c3)nc2c1-c1nc2cc(C(F)(F)F)ncc2n1C [Compound 69, 2-(5-(3,5-Dichlorophenyl)-2-(ethylsulfonyl)pyrazolo[1,5-a]pyrimidin-3-yl)-3-methyl-6-(trifluoromethyl)-3H-imidazo[4,5-c]pyridine] | > 70 |
| CCS(=N)(=O)c1nn2c(-c3cc(Cl)cc(Cl)c3)ccnc2c1-c1nc2cc(C(F)(F)F)cnc2n1C (centres unmarked) [Compound 135, (7-(3,5-Dichlorophenyl)-3-(3-methyl-6-(trifluoromethyl)-3H-imidazo[4,5-b]pyridin-2-yl)pyrazolo[1,5-a]pyrimidin-2-yl)(ethyl)(imino)-λ^6-sulfanone] | > 70 |
| CCS(=O)(=O)c1nn2ccc(-c3cc(Cl)cc(Cl)c3)nc2c1-c1nc2cc(C(F)(F)F)cnc2n1C [Compound 67, 2-(5-(3,5-Dichlorophenyl)-2-(ethylsulfonyl)pyrazolo[1,5-a]pyrimidin-3-yl)-3-methyl-6-(trifluoromethyl)-3H-imidazo[4,5-b]pyridine] | > 70 |
| CCS(=O)(=O)c1nn2c(C)ccnc2c1-c1nc2cc(C(F)(F)F)cnc2n1C [Compound 133, 2-(2-(Ethylsulfonyl)-7-methylpyrazolo[1,5-a]pyrimidin-3-yl)-3-methyl-6-(trifluoromethyl)-3H-imidazo[4,5-b]pyridine] | > 70 |
| CCSc1nn2c(-c3ccc(Cl)cc3)ccnc2c1-c1nc2cc(C(F)(F)F)ncc2n1C [Compound 35, 2-(7-(4-Chlorophenyl)-2-(ethylthio)pyrazolo[1,5-a]pyrimidin-3-yl)-3-methyl-6-(trifluoromethyl)-3H-imidazo[4,5-c]pyridine] | > 70 |
| CCS(=O)(=O)c1nn2c(-c3cccc(F)c3)ccnc2c1-c1nc2cc(C(F)(F)F)cnc2n1C [Compound 130, 2-(2-(Ethylsulfonyl)-7-(3-fluorophenyl)pyrazolo[1,5-a]pyrimidin-3-yl)-3-methyl-6-(trifluoromethyl)-3H-imidazo[4,5-b]pyridine] | > 70 |
| CCS(=O)(=O)c1nn2cc(-c3ccccc3)cnc2c1-c1nc2cc(C(F)(F)F)ncc2n1C [Compound 66, 2-(2-(Ethylsulfonyl)-6-phenylpyrazolo[1,5-a]pyrimidin-3-yl)-3-methyl-6-(trifluoromethyl)-3H-imidazo[4,5-c]pyridine] | > 70 |
